# From patent US9632090B2, “Compositions and methods for the identification, assessment, prevention and therapy of thymic lymphoma or hamartomatous tumours” (Dana-Farber Cancer Institute, Inc., priority 2007, dated 2017)
# Read-outs that look alike come from different tables or passages of the source.
# What was measured:
# [1] = DMBA carcinogen treatment, survival and tumor development; format: in vivo, mouse; conditions: treated at day 7
# Method: Littermate controls were analyzed for tumor-free survival. Animals were genotyped by PCR and allowed to age undisturbed in a maximum of 5 mice per cage with standard chow and water ad libitum in a standard light-day cycle. Mice were monitored three times a week and were sacrificed when moribund or if external tumors exceeded 2 cm in diameter and scored as a death in survival analysis. Those animals with cancer, as determined by histological analysis, were scored as an event in the tumor-free survival Kaplan-Meier analysis. For lung tumors, analysis of tumor load was carried out as done previously (Zhang et al., 2001).
# Seven-day old pups were treated with 5% 7,12-dimethylbenz-alpha-anthracene (DMBA) in acetone by pipetting 50 μl onto the back, and allowing it to air-dry. Mice were monitored three times a week for signs of morbidity and underwent full autopsies for tumor detection.
# [2] = test system: thymocytes; test: Thymocyte apoptosis / cell viability (propidium iodide, flow cytometry); format: cell-based, mouse; conditions: 1 μM, 18 hrs
# Method: For analysis of thymocytes, fresh thymus was passed through a cell strainer (Becton Dickinson) in order to produce single cell suspensions for analysis and resuspended in RPMI-1640 media containing 10% fetal calf serum. For thymocyte proliferation assays, cells were seeded in 96-well plates at 1×10^5 cells per well and subjected to the following conditions: no mitogen, PMA (1 ng/ml)+ionomycin (50 ng/ml), and 3 μg/ml anti-CD3e (eBioscience)+100 U IL-2. Cells were grown for 48 hours, pulsed with 1 μCi [3H]-thymidine (Amersham) for the last 16 hours. Incorporated [3H]-thymidine was measured using the 1450 MicroBeta Trilux Scintillation and Luminescence Counter. For analysis of apoptosis, thymocytes were plated in 12-well plates (1×10^6 cells per well) and treated with 5 Gy gamma-irradiation or 1 μM dexamethasone for 18 hours. Cell viability was determined by staining the cells with propidium iodide and performing flow cytometric analysis.
# [3] = test system: lung ECs; test: MTT viability assay, lung endothelial cells; format: cell-based, mouse
# Method: (§1) 100 ng/ml FGF, or 10% FBS.
# [4] = test system: liver ECs; test: MTT viability assay, liver endothelial cells; format: cell-based, mouse
# Method: as §1
# [5] = test system: liver ECs
# Method: Livers of Mx-Cre^+ or Mx-Cre^− mice injected with pI-pC 3 weeks prior were used for the isolation of liver ECs. Liver tissues were homogenized and digested in collagenase D and lysates were run through a cell strainer. ECs were enriched by taking the interphase of a 30% Histodenz (Sigma) and RPMI suspension of cells overlaid after spinning at 1500×g for 20 min. Cells were further affinity isolated by CD31-M450 prebound magnetic beads. […] VEGF and basic FGF were obtained from the Biological Resources Branch, NCI Preclinical Repository. Cells were grown in DMEM+0.5% BSA supplemented with 100 ng/ml VEGF. 100 ng/ml FGF, or 10% FBS. EC proliferation and apoptosis were measured with the BrdU labelling and detection kit (Roche) and the In situ cell death detection kit (Roche), respectively per the manufacturer's instruction. Viability of cells after various treatments was measured by MTT (2,3-bis-(2-methoxy-4-nitro-5-sulfophenyl)-2H-tetrazolium-5-carboxanilide) assays in 96 well plates. […] Vector (pLKO) alone and pLKO-GFP were used as controls to exclude non-specific responses. Cells were selected for 96 hrs with puromycin (1 μg/ml) and used for further assays.
# [6] = test system: VEGF; conditions: intravitreal, proliferative diabetic retinopathy, short term therapy; cited from earlier work
# Chain of VEGF (P15692 207-311 limits assumed): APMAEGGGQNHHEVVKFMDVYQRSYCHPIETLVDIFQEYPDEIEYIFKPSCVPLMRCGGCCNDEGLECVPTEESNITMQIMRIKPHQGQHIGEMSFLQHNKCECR
compound,measurement,setting,value
"Cc1c2ccccc2c(C)c2c1ccc1ccccc12 [DMBA, 7,12-dimethylbenz-alpha-anthracene]",median survival,[1]; FoxO4+/+ mice,27.3 weeks
same,median survival,[1]; FoxO4-/- mice,23.4 weeks
"C[C@@H]1C[C@H]2[C@@H]3CCC4=CC(=O)C=C[C@]4(C)[C@@]3(F)[C@@H](O)C[C@]2(C)[C@@]1(O)C(=O)CO [dexamethasome, dexamethasone]",survival,[2]; Mx-Cre+ thymocytes,69.3±0.7 % survival
same,survival,[2]; Mx-Cre- thymocytes,50.6±2.6 % survival
TGF-β1: cytokine known to induce EC cytostasis through Smad signalling,sensitivity to stimulation,[3]; lung ECs irrespective of FoxO status,insensitive
same,survival upon exposure,[4]; Mx-Cre- liver ECs (reduced survival),~60%
same,survival upon exposure,"[4]; liver ECs, much less sensitive",~90%
VEGF,increase in viability,[3]; Mx-Cre+ lung ECs,47.2%
same,increase in viability,[3]; Mx-Cre- lung ECs,41.7%
same,increase in viability (proliferation upon stimulation),[4]; Mx-Cre+ liver ECs,73.3%
same,increase in viability (proliferation upon stimulation),[4]; Mx-Cre- liver ECs,17.9%
same,tube length (VEGF-induced tube formation),[5]; Mx-Cre+ liver ECs,4123±318 μm
same,tube length (VEGF-induced tube formation),[5]; Mx-Cre- liver ECs,3229±285 μm
bevacizumab: humanized anti-VEGF-A monoclonal antibody,angiographic leaking,[6],complete resolution of angiographic leaking
